The test system of one series is B16F10 cells. Nature of the series: Survival time in mice bearing B16F10 cells. Type of series: in vivo, C57BL/6 mice. As to conditions: for median survival time (MST): twice a week for two weeks, vehicle group 16 days. On the procedure:
The animal experiments were conducted under the guidelines of the “Regulations for the Administration of Affairs Concerning Experimental Animals” (revised 2017, State Council No. 676). Female C57/B6 mice at 5 to 6 weeks were implanted via intraperitoneal (ip) injection with 5.0 × 10^6 B16F10 cells per individual and randomly assigned into control groups and treatment groups. Seven days after inoculation, mice from the control group were treated orally with DMSO in a vehicle, whereas the compound group mice were treated with specified concentrations of compounds by oral administration twice a week for two weeks. The survival percentage of the mice in each group was recorded and plotted. The anti-tumor activity of the drug was evaluated by measuring the median survival time (MST) for each group.

For series [1], the system named is H22 pulmonary metastasis tumor model. In words: In vivo H22 pulmonary metastasis model. As to conditions: p.o., BIW, 2 weeks, vehicle group 71.5. Details: species or system Kunming mice. As to the method:
The animal experiments were conducted under the guidelines of the “Regulations for the Administration of Affairs Concerning Experimental Animals” (revised 2017, State Council No. 676). H22 cells (3 × 10^6 cells/100 μL per mouse) were intravenously (i.v.) inoculated via the tail vein of Kunming mice aged 6 weeks on day 0. To ensure the growth of pulmonary metastasis before the drug treatment, the tumor was allowed to develop for 7 days. On day 8, the randomly grouped mice were treated with ixazomib (0.008 mmol/kg, p.o., BIW) or BC-05 (0.006, 0.008, and 0.01 mmol/kg, p.o., BIW) for consecutive 2 weeks. On day […], the mice were weighed and sacrificed, and the lungs were removed and weighed. After being fixed in the Bouin stationary solution for one day, the lung metastasized nodes of each mouse were numbered.

A short description of series [2]: Subacute toxicity experiment. Type of series: in vivo. As to conditions: SD rats, male and female, 0.006, 0.02 and 0.06 mmol/kg p.o. twice a week, 30 days. On the procedure: The animal experiments were conducted under the guidelines of the “Regulations for the Administration of Affairs Concerning Experimental Animals” (revised 2017, State Council No. 676). For the subacute toxicity study, 12 male and 12 female SD rats (purchased from the Weifang Medical University) were randomly divided into three treatment groups and a control group (n = 6, half male and half female). The rats in treatment groups were given 0.06 mmol/kg (p.o. BIW), 0.02 mmol/kg (p.o. BIW), and 0.006 mmol/kg (p.o. BIW) BC-05, respectively, for 30 days, while the rats in control groups were treated with the same volume of a vehicle solution. The rats were weighed each day and dissected at day 30. Behavioral abnormalities such as lethargy, ruffled fur, anorexia, clonic convulsion, and diarrhea were recorded throughout the entire experimental period.

The test system of another series is RPMI-8266. In words: Cell proliferation analysis (MTT). Type of series: cell-based. As to conditions: RPMI8266, 48 h, read-out: Anti-proliferative activity IC50, RPMI-8266. On the procedure: (§1) All tumor cell lines in the current research were grown in a certain growth medium containing 10% FBS and 1% (v/v/v) penicillin–streptomycin–amphotericin at 37 °C in 5% CO2. Cells were seeded into 96-well plates at a density of 8 × 10^3 cells per well for tumor adherent cells and 2 × 10^4 cells per well for tumor-suspended cells in a final volume of 100 μL. After 12 h, 100 μL of various concentrations of compounds was added to each and incubated for 48 h. A 0.5% MTT solution was added per well before the intermixture was incubated for another 4 h, and formazan formed from MTT was extracted by adding […] of DMSO rocking for 15 min. Absorbance was measured at 570 nm using a Spark multimode microplate from Tecan. The IC50 values were calculated according to the inhibition ratios.

The test system of another series is KG1. Nature of the series: Cell proliferation analysis (MTT). Type of series: cell-based. As to conditions: Homo sapiens, KG-1, 48 h, read-out: Anti-proliferative activity IC50, KG1. As to the method:
as §1

The subject of a further series is HEL. In words: Cell proliferation analysis (MTT). Type of series: cell-based. As to conditions: Homo sapiens, 48 h, read-out: Anti-proliferative activity IC50, HEL. As to the method: as §1
The next series deals with MM.1S. Nature of the series: Cell proliferation analysis (MTT). As to conditions: Homo sapiens, MM1.S, 48 h, read-out: Anti-proliferative activity IC50, MM.1S. Type of series: cell-based. On the procedure: as §1
For a further series, the system named is A2780. In words: Cell proliferation analysis (MTT). Type of series: cell-based. As to conditions: Homo sapiens, 48 h, read-out: Anti-proliferative activity IC50, A2780. As to the method:
as §1

The next series relates to HCT116. In words: Cell proliferation analysis (MTT). Type of series: cell-based. As to conditions: Homo sapiens, HCT-116, 48 h, read-out: Anti-proliferative activity IC50, HCT116. On the procedure:
as §1

In a further series the test system is U266. In words: Cell proliferation analysis (MTT). As to conditions: Homo sapiens, U-266, 48 h, read-out: Anti-proliferative activity IC50, U266. Type of series: cell-based. On the procedure:
as §1

For a further series, the system named is PC3. Nature of the series: Cell proliferation analysis (MTT). Type of series: cell-based. As to conditions: Homo sapiens, PC-3, 48 h, read-out: Anti-proliferative activity IC50, PC3. As to the method:
as §1

A further series relates to MDA-MB-231. In words: Cell proliferation analysis (MTT). Type of series: cell-based. As to conditions: Homo sapiens, 48 h, read-out: Anti-proliferative activity IC50, MDA-MB-231. As to the method: as §1
The test system of a further series is Hela. Nature of the series: Cell proliferation analysis (MTT). Type of series: cell-based. As to conditions: Homo sapiens, 48 h, read-out: Anti-proliferative activity IC50, Hela. On the procedure:
as §1

A further series has as its system SP2. In words: Cell proliferation analysis (MTT). Type of series: cell-based. As to conditions: 48 h, read-out: Anti-proliferative activity IC50, SP2. On the procedure:
as §1

In the next series the test system is U251. In words: Cell proliferation analysis (MTT). As to conditions: Homo sapiens, U-251, 48 h, read-out: Anti-proliferative activity IC50, U251. Type of series: cell-based. On the procedure:
as §1

In another series the target is T1, CD13 from Porcine Kidney (Sus scrofa, UniProt P15145).
T1 construct: purchased Sigma Chemical Co., St. Louis, MO, USA
In words: CD13 inhibition assay (porcine aminopeptidase, L-leucine-p-nitroanilide). Type of series: biochemical. As to conditions: mean ± SD, n ≥ 3; read-out: IC50 toward CD13 from Porcine Kidney. As to the method:
L-leucine-p-nitroanilide can be degraded by recombinant human aminopeptidase (R&D systems) or procine aminopeptidase (Sigma Chemical Co., St. Louis, MO, USA) and produce light absorption at 405 nm. The CD13 inhibitory activity of synthetic compounds was identified according to the degree of degradation of L-leucine-p-nitroanilide. L-leucine-p-nitroanilide was dissolved in DMSO and mixed with tested compounds in a transparent 96-well plate; then, aminopeptidase was added using phosphate solution (pH 7.2) as the assay buffer. After incubation at 37 °C for 30 min, the absorption was detected under a 405 nm wavelength via Tecan Spark multimode microplate.

T1 sequence (P15145 whole entry): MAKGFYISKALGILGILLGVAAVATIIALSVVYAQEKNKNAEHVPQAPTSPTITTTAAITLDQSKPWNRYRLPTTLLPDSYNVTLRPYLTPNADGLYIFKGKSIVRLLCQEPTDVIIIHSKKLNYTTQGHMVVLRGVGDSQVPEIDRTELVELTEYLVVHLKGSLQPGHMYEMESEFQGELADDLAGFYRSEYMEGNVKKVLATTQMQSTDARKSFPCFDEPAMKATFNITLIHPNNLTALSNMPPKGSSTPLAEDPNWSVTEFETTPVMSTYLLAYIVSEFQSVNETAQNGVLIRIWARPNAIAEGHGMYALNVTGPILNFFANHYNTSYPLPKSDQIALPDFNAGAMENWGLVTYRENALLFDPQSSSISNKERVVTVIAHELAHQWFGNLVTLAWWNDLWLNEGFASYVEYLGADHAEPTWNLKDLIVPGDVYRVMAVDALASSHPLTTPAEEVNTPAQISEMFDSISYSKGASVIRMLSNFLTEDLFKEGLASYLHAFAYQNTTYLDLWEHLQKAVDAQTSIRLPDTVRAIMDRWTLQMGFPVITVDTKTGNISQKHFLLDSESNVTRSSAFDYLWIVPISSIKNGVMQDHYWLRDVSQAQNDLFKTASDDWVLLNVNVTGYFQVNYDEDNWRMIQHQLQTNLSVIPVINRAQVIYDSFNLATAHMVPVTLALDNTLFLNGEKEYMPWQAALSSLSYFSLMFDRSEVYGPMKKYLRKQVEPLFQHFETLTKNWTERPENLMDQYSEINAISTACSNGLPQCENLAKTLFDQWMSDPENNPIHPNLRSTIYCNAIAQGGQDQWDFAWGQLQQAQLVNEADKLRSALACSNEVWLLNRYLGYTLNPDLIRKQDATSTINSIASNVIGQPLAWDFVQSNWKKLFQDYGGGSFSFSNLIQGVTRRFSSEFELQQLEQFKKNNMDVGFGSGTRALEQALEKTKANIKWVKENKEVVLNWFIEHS

Turning to `CC(C)C[C@H](NC(=O)[C@@H](O)[C@H](N)Cc1ccccc1)B1OC(=O)C(CC(=O)O)(CC(=O)O)O1` [BC-05, 2,2′-(2-((R)-1-((2S,3R)-3-amino-2-hydroxy-4-phenylbutanamido)-3-methylbutyl)-5-oxo-1,3,2-dioxaborolane-4,4-diyl)diacetic acid], the “MST increase compared to the vehicle group” value amounted to 1.4 fold in the series with B16F10 cells (0.008 mmol/kg oral) and 1.6 fold in the series with B16F10 cells (0.012 mmol/kg oral). Besides, the “median survival time (MST)” value in the series with B16F10 cells (0.008 mmol/kg oral) turned out to be 22 days; in the series on B16F10 cells (0.012 mmol/kg oral), 25 days. Also, the “number of H22 pulmonary nodes” value in [1] (0.006 mmol/kg) worked out at 17.3; in series [1] (0.008 mmol/kg), 15.2; in [1] (0.01 mmol/kg), 12.7. The body weight loss result in [2] is listed as “did not exhibit any significant body weight loss”. Also, the IC50 stood at 15.1 ± 2.23 µM in the series on RPMI-8266; 41.6 ± 4.11 µM in the series with KG1; 13.3 ± 2.81 µM in the series with HEL; 1530 ± 240 nM with MM.1S; 33.7 ± 0.99 µM in the series with A2780; 86.7 ± 7.34 µM with HCT116. For the same compound, the IC50 with U266 came out at 13.7 ± 1.43 µM; in the series with PC3, 47.4 ± 4.22 µM; in the series with MDA-MB-231, 13.3 ± 0.49 µM; in the series on Hela, 83.1 ± 8.79 µM; in the series on SP2, 14.7 ± 4.91 µM; in the series with U251, 47.5 ± 11.9 µM. On CD13 from Porcine Kidney, the IC50 was 650 ± 50 nM.

A word on the IC50: it is the midpoint of a concentration-inhibition curve.
